Where “and” joins values, the source holds several entries; their conditions need not be identical. Equal entries are not always repeated.
Assays:
[1] = Decomposition in PBS at 37° C. monitored by UV/Vis spectrophotometry; assay type: physicochemical
Protocol: The decomposition of GSCbl, NACCbl, and HcyCbl in PBS at 37° C. was monitored by UV/Vis spectrophotometry.

SK-HEP-1 cells = assay: Protection of endothelial cells from homocysteine-induced cell death (MTS assay); assay type: cell-based, human; conditions: for Absorbance at 490 nm: single replicates Y1-Y6
[2] = Conc. Hcy 0.000, NACCbl 30 μM, NAC 75 μM, n = 6
[3] = Conc. Hcy 1.780, NACCbl 30 μM, NAC 75 μM, n = 6
[4] = Conc. Hcy 3.125, NACCbl 30 μM, NAC 75 μM, n = 6
[5] = Conc. Hcy 6.250, NACCbl 30 μM, NAC 75 μM, n = 6
[6] = Conc. Hcy 12.500, NACCbl 30 μM, NAC 75 μM, n = 6
[7] = Conc. Hcy 25.000, NACCbl 30 μM, NAC 75 μM, n = 6
[8] = Conc. Hcy 50.000, NACCbl 30 μM, NAC 75 μM, n = 6
[9] = Conc. Hcy 100.000, NACCbl 30 μM, NAC 75 μM, n = 6
[10] = Conc. Hcy 200.000, NACCbl 30 μM, NAC 75 μM, n = 6

## CC(=O)NC(C[S-])C(=O)O.CC1=C2N=C(C=C3N=C(C(C)=C4[N-]C(C(CC(N)=O)C4(C)CCC(=O)NCC(C)OP(=O)([O-])OC4C(CO)OC(n5cnc6cc(C)c(C)cc65)C4O)C4(C)N=C1C(CCC(N)=O)C4(C)CC(N)=O)C(CCC(N)=O)C3(C)C)C(CCC(N)=O)C2(C)CC(N)=O.[Co+3] [NACCbl, N-acetyl-L-cysteinylcobalamin]
[1]
  t1/2: No decomposition within 20 hours
SK-HEP-1 cells; 2 hours, then 30 μM homocysteine 24 hours
  Pre-incubation concentration that protected cells from homocysteine-induced cell death: ≥ 2.0 µM
SK-HEP-1 cells; [2]
  Normalized Data Log 2, Mean: 94.824
  Normalized Data Log 10, Mean: 100.000
SK-HEP-1 cells; [3]
  Normalized Data Log 2, Mean: 91.341
  Normalized Data Log 10, Mean: 96.489
SK-HEP-1 cells; [4]
  Normalized Data Log 2, Mean: 80.699
  Normalized Data Log 10, Mean: 85.763
SK-HEP-1 cells; [5]
  Normalized Data Log 2, Mean: 75.524
  Normalized Data Log 10, Mean: 80.546
SK-HEP-1 cells; [6]
  Normalized Data Log 2, Mean: 70.387
  Normalized Data Log 10, Mean: 75.368
SK-HEP-1 cells; [7]
  Normalized Data Log 2, Mean: 62.926
  Normalized Data Log 10, Mean: 67.848
SK-HEP-1 cells; [8]
  Normalized Data Log 2, Mean: 56.302
  Normalized Data Log 10, Mean: 61.171
SK-HEP-1 cells; [9]
  Normalized Data Log 2, Mean: 52.298
  Normalized Data Log 10, Mean: 57.135
SK-HEP-1 cells; [10]
  Normalized Data Log 2, Mean: 40.781
  Normalized Data Log 10, Mean: 45.526
SK-HEP-1 cells; Conc. of Hcy 0.000, NACCbl 30 μM, NAC 75 μM
  Absorbance at 490 nm: 2.885 and 2.698 and 2.821 and 2.771 and 2.691 and 2.700
SK-HEP-1 cells; Conc. of Hcy 1.780, NACCbl 30 μM, NAC 75 μM
  Absorbance at 490 nm: 2.647 and 2.551 and 2.789 and 2.890 and 2.549 and 2.611
SK-HEP-1 cells; Conc. of Hcy 3.125, NACCbl 30 μM
  Absorbance at 490 nm: 2.453 and 2.338 and 2.360 and 2.317 and 2.418 and 2.535
SK-HEP-1 cells; Conc. of Hcy 6.250, NACCbl 30 μM, NAC 75 μM
  Absorbance at 490 nm: 2.410 and 2.400 and 2.322 and 2.201 and 2.115 and 2.187
SK-HEP-1 cells; Conc. of Hcy 12.500, NACCbl 30 μM, NAC 75 μM
  Absorbance at 490 nm: 2.210 and 2.110 and 2.045 and 2.065 and 2.101 and 2.324
SK-HEP-1 cells; Conc. of Hcy 25.000, NACCbl 30 μM, NAC 75 μM
  Absorbance at 490 nm: 2.100 and 2.190 and 1.879 and 1.937 and 1.779 and 1.837
SK-HEP-1 cells; Conc. of Hcy 50.000, NACCbl 30 μM, NAC 75 μM
  Absorbance at 490 nm: 1.678 and 1.832 and 1.881 and 1.730 and 1.740 and 1.855
SK-HEP-1 cells; Conc. of Hcy 100.000, NACCbl 30 μM, NAC 75 μM
  Absorbance at 490 nm: 1.678 and 1.592 and 1.694 and 1.773 and 1.732 and 1.639
SK-HEP-1 cells; Conc. of Hcy 200.000, NACCbl 30 μM, NAC 75 μM
  Absorbance at 490 nm: 1.378 and 1.167 and 1.330 and 1.456 and 1.491 and 1.537
SK-HEP-1 cells; Hcy 30 μM, NAC 45 μM, GSH 100 μM, NACCbl 12.5 μM, GSCbl 15 μM
  Protection against homocysteine-induced damage compared with free thiols: superior to the free thiols
SK-HEP-1 cells; NACCbl 30 μM, variable Hcy
  Prevention of cell death compared with NAC and cyanocobalamin + NAC: superior to either NAC (75 μM) alone or in combination with CNCbl
SK-HEP-1 cells; SK-HEP-1, NACCbl 30 μM, NAC 75 μM, Hcy conc. 200.000, n = 6, label Hcy = Hcy alone
  Absorbance at 490 nm, Mean: 1.393
SK-HEP-1 cells; [Hcy] 30 μM, [NAC] = 45 μM, [NACCbl] = 12.5 μM, [Folate] = 25 μM where named in the label, label Hcy/HCy = Hcy alone
  Mean (FIG. 14, protection of SK-HEP-1 cells from Hcy): 1.696
SK-HEP-1 cells; [Hcy] 30 μM, folate 25 μM present, [GSCbl] = 15 μM, [NACCbl] = 12.5 μM, [CNCbl] = 15 μM, [MeCbl] = 12.5 μM, [HOCbl] = 17.5 μM, [NAC] = 45 μM, [GSH] = 100 μM
  Mean (FIG. 14a, protection of SK-HEP-1 cells from Hcy in the presence of folate): 2.661
SK-HEP-1 cells; as E80, Hcy conc. 0.000
  Absorbance at 490 nm, Mean: 2.761
SK-HEP-1 cells; as E80, Hcy conc. 1.780
  Absorbance at 490 nm, Mean: 2.673
SK-HEP-1 cells; as E80, Hcy conc. 3.125
  Absorbance at 490 nm, Mean: 2.404
SK-HEP-1 cells; as E80, Hcy conc. 6.250
  Absorbance at 490 nm, Mean: 2.273
SK-HEP-1 cells; as E80, Hcy conc. 12.500
  Absorbance at 490 nm, Mean: 2.142
SK-HEP-1 cells; as E80, Hcy conc. 25.000
  Absorbance at 490 nm, Mean: 1.954
SK-HEP-1 cells; as E80, Hcy conc. 50.000
  Absorbance at 490 nm, Mean: 1.786

Reference: US20080113900A1, “Pharmaceutical compositions and therapeutic applications for the use of a synthetic vitamin B12 derivative, glutathionylcobalamin” (priority 2006, published 2008)
